pIC50: −log10 of the molar value. Structures can show the parent of a compound that is named as a salt.
What was measured:
[1] = test system: p-ERK of KRAS^G12D mutant AsPC-1 cells; assay: AsPC-1 cell p-ERK inhibition test (HTRF), Experimental Example 1; format: cell-based; conditions: Homo sapiens, ASPC1, 3 hours compound incubation
Experimental: Experimental Example 1. AsPC-1 Cell p-ERK Inhibition Test
The inhibitory activity of the compound on p-ERK levels of KRAS^G12D-mutant pancreatic cancer AsPC-1 cells was assessed by HTRF.
ASPC-1 cells were purchased from ATCC; RPMI-1640 medium was purchased from Gibco; Fetal Bovine Serum was purchased from Hyclone; Advanced Phospho-ERK1/2 (THR202/TYR204) KIT was purchased from Bioauxilium—
ASPC-1 cells were seeded in a 384-well cell culture plate with a white bottom, 8 μL of cell suspension per well, containing 7,500 cells per well, and the cell plates were placed in a carbon dioxide incubator and incubated at 37° C. overnight;
The test compound was diluted to 3 mM with 100% DMSO as the first concentration, and then diluted to ten concentrations of 3000, 1000, 300, 100, 30, 10, 3, 1, 0.3, 0.1 μM with a pipette. Take 2 μL of compound and add 198 μL of cell starvation medium. After mixing well, take 15 μL of compound solution and add 35 μL of cell starvation medium and mix well. Then add 4 μL of compound solution in each well to the corresponding cell plate well. Place the cell plate back in the carbon dioxide incubator for continued incubation for 3 hours. At this time, the compound concentration is 3,000, 1,000, 300, 100, 30, 10, 3, 1, 0.3, 0.1 nM. […]
After the end of incubation, use a multi-label analyzer to read HTRF excitation: 320 nm, emission: 615 nm, 665 nm; […]

[2] = test system: p-ERK in AsPC-1 cells (KRAS^G12D mutation, pancreatic cancer); assay: AsPC-1 cell p-ERK inhibition test, Experimental Example 2; conditions: Homo sapiens, ASPC1, read-out: AsPC-1 p-ERK IC50 (nM)
Experimental: 1640 medium, penicillin/streptomycin antibiotics were purchased from Gibco, and fetal bovine serum was purchased from Biosera. CellTiter-Glo (Cell Viability Chemiluminescence Detection Reagent) reagent was purchased from Promega. AsPC-1 cell line was purchased from ATCC, Envision Multi-Tag Analyzer (PerkinElmer).
AsPC-1 (KRAS^G12D mutation, pancreatic cancer) cells were seeded in ultra-low adsorption 96-well blackwall plate, 80 μL cell suspension per well, containing 10,000 AsPC-1 cell lines from ATCC cells. Plates were incubated overnight in a carbon dioxide incubator.
The test compound was diluted 8 concentrations with a 5-fold drain, i.e., from 2 mM to 25.6 nM, and a double replicate well experiment was set up. Add 78 μL of culture medium to the intermediate plate, and transfer 2 μL of gradient diluted compound per well to the intermediate plate according to the corresponding positions. Mix well and transfer 20 μL of each well to the cell plate. […] Another cell plate was prepared, and the signal value was read as the maximum value (Max value in the equation below) on the day of dosing to participate in the data analysis.
Each 100 μL of cell viability chemiluminescence detection reagent was added to the cell plate and incubated at room temperature for 30 minutes to stabilize the luminescence signal. Use multi-label analyzer for reading. […]

Row | Structure (SMILES) | pIC50 [1] | IC50 [2]
1 | C=C1CN2CCC[C@@]2(COc2nc3c(c(N4CC5CCC(CO)(C4)N5)n2)CO[C@H](c2c(F)c(N)cc(C#CC)c2C(F)(F)F)C3)C1 (some centres unmarked) [Hydrochloride of Compound 1] | 6.79 | –
2 | C=C1CN2CCC[C@@]2(COc2nc3c(c(N4CC5CCC(C4)N5)n2)CO[C@H](c2c(F)c(N)cc(C#CCl)c2C(F)(F)F)C3)C1 [Trifluoroacetate of Compound 7] | – | 24.9 nM

Source: patent US20250228854A1, “HETEROCYCLIC SUBSTITUTED PYRIMIDOPYRAN COMPOUNDS AND THEIR APPLICATIONS” (priority 2023, published 2025)
